pIC50: −log10 of the molar value. Converted amounts (≈) assume the structure as drawn. Like-named read-outs stand apart in the source and are kept apart here.
Columns and labels:
Candida albicans = experiment: Antifungal activity in vitro, C. albicans (microdilution); type: cell-based; conditions: 27° C.
Procedure: (§1) Antifungal activity in vitro The compounds were tested for antifungal activity against Candida albicans, Cryptococcus neoformans and Aspergillus fumigatus using a microdilution method on microtitre plates (96 wells per plate). Yeast supplemented with 1% glucose and 0.25% di-potassium phosphate was used for the three fungal strains. The fungal cells were inoculated at 3×10^4 CFU (Colony Forming Unit) in […] of medium per well. The medium contained increasing concentrations of test substance. After incubation at 27° C. for 24 or 48 hours the turbidity in each well was measured by a microtitre plate reader. The growth inhibition was calculated in comparison to (without test substance). The IC50 value given in the following Table is the concentration of test substance at which the growth is inhibited by 50%.

Cryptococcus neoformans = experiment: Antifungal activity in vitro, C. neoformans (microdilution); type: cell-based; conditions: 48 hours, 27° C., read-out: IC50 for C. neoformans after 48 hours (growth inhibition)
Procedure: as §1

Aspergillus fumigatus = experiment: Antifungal activity in vitro, A. fumigatus (microdilution); type: cell-based; conditions: 48 hours, 27° C., read-out: IC50 for A. fumigatus after 48 hours (growth inhibition)
Procedure: as §1

[1] = Cholesterol lowering in fat-fed hamsters; type: in vivo, Male golden hamsters; conditions: 200 μmol (about 70-120 mg/kg/day) in diet, 10 days
Procedure: Cholesterol lowering in fat-fed hamsters
Male golden hamsters kept individually were pre-treated for 7 days with a diet containing grated coconut (40 cal. % fat). The animals were then divided into groups each comprising 5 animals. During the treatment the animals were maintained on the same diet. Each test substance was firstly homogenized in 9 ml of water and subsequently mixed with the milled diet. The controls received only feed converted into a paste with water. The animals were treated for 10 days with a test substance dosage of 200 μmol (about 70-120 mg/kg/day). Blood samples (200 μl) were removed via the jugular vein under light anaesthesia on the last day of the pretreatment and one day after the last administration of test substance. The plasma cholesterol concentration was determined using a colorimetric enzyme method. The plasma lipoproteins were separated by exclusion chromatography (Hennes et al., Science Tools, 36, 1992, 10-12). The total cholesterol was determined in each fraction using a fluorometric enzyme method (Gamble et al., J. Lipid Res., 19, 1978, 1068-1071) in order to calculate the amount of cholesterol in the LDL and HDL fractions. The activity on plasma cholesterol and LDL and HDL cholesterol, expressed in percent of the control animals, for the products of Examples 8a and 12 is reproduced in the following Table: […]

[2] = molecular target: T1, human liver microsomal 2,3-oxidosqualene-lanosterol cyclase (OSC) (Homo sapiens, UniProt P48449); experiment: Inhibition of human liver microsomal 2,3-oxidosqualene-lanosterol cyclase (OSC); type: biochemical; conditions: for inhibition at 0.1 µM: 100 nM test substance, 1 hour at 37° C., against controls; for pIC50: pH 7.4, 1 hour at 37° C., read-out: IC50 (OSC, conversion of MOS into lanosterol)
T1 construct: Liver microsomes from a healthy volunteer were prepared in sodium phosphate buffer (pH 7.4); from tissue; host or cells: liver microsomes from a healthy human volunteer
T1 sequence (P48449 1-732): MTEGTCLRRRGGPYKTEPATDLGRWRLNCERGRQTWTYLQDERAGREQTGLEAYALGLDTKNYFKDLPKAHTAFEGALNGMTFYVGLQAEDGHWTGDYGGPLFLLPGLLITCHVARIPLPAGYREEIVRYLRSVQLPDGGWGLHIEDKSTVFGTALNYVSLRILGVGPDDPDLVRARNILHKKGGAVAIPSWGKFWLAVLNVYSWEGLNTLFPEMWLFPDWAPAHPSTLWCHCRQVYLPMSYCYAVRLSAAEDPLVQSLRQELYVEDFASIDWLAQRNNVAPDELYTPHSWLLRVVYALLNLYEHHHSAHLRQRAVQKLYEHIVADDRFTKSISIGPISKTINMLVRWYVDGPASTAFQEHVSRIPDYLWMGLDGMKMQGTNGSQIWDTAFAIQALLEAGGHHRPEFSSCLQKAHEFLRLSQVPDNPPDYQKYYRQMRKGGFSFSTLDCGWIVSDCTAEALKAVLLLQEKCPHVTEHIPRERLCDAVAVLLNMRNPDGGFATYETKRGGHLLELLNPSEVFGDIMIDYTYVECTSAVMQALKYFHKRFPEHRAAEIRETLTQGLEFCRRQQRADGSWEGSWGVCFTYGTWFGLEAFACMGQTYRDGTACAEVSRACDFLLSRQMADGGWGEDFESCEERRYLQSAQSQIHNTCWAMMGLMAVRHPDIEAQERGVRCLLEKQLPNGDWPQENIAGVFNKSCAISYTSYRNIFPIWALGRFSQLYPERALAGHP
Procedure: Inhibition of human liver microsomal 2,3-oxidosqualene-lanosterol cyclase (OSC)
Liver microsomes from a healthy volunteer were prepared in sodium phosphate buffer (pH 7.4). The OSC activity was measured in the same buffer which also contained 1 mM EDTA and 1 mM dithiothreitol. The microsomes were diluted to 0.8 mg/ml protein in cold phosphate buffer. Dry [^14 C]R,S-monooxidosqualene (MOS; 12.8 μCi/mmol) was diluted to 20 nCi/μl with ethanol and mixed with phosphate buffer-1% BSA (Bovine Serum Albumin). A stock solution of 1 mM test substance in DMSO was diluted to the desired concentration with phosphate buffer-1% BSA. 40 μl of microsomes were mixed with 20 μl of the solution of the test substance and the reaction was subsequently started with 20 μl of the [^14 C]R,S-MOS solution. The final conditions were: 0.4 mg/ml of microsomal proteins and […] of [^14 C]R,S-MOS in phosphate buffer, pH 7.4, containing 0.5% albumin, DMSO <0.1% and ethanol <2%, in a total volume of 80 μl.
After 1 hour at 37° C. the reaction was stopped by the addition of 0.6 ml of 10% KOH-methanol, 0.7 ml of water and 0.1 ml of hexane:ether (1:1, v/v) which contained 25 μg of non-radioactive MOS and 25 μg of lanosterol as the carrier. After shaking 1 ml of hexane:ether (1:1, v/v) was added to each test tube, these were again shaken and then centrifuged. The upper phase was transferred into a glass test tube, the lower phase was again extracted with hexane:ether and combined with the first extract. The entire extract was evaporated to dryness with nitrogen, the residue was suspended in 50 μl of hexane:ether and applied to a silica gel plate. Chromatographic separation was effected in hexane:ether (1:1, v/v) as the eluent. […] After drying radioactive MOS and lanosterol were observed on the silica gel plate. The ratio of MOS to lanosterol was determined from the radioactive bands in order to determine the OSC inhibition.
The test was carried out on the one hand with a constant test substance concentration of 100 nM and the percentage OSC inhibition against controls was calculated. In addition, the test was carried out with different test substance concentrations and subsequently the IC50 value was calculated, i.e. the concentration required to reduce the conversion of MOS into lanosterol to 50% of the control value.

[3] = 24 hrs., read-out: IC50 for C. albicans after 24 hrs. (growth inhibition)
[4] = 48 hrs., read-out: IC50 for C. albicans after 48 hrs. (growth inhibition)

For `C=CCN(C)CCCCCCOc1ccc2c(c1)CCNC2c1ccc(Br)cc1` (racemic) [Example 21, (RS)-allyl-[6-[1-(4-bromo-phenyl)-1,2,3,4-tetrahydro-isoquinolin-6-yloxy]-hexyl]-methyl-amine], the IC50 (Candida albicans; [3]) was under 0.32 µg/mL, the IC50 (Candida albicans; [4]) was 1.3 µg/mL (≈ 2.84 µM) and the IC50 (Cryptococcus neoformans) was under 0.32 µg/mL. For the same compound, the IC50 (Aspergillus fumigatus) was 4.1 µg/mL (≈ 8.96 µM).
Work on `C=CCN(C)CCCCCCOc1ccc2c(c1)N=CNC2c1ccc(Br)cc1` (racemic) [Example 34, (RS)-Allyl-[6-[4-(4-bromo-phenyl)-3,4-dihydro-quinazolin-7-yloxy]-hexyl]-methyl-amine] yielded an IC50 (Candida albicans; [3]) of 1.6 µg/mL (≈ 3.51 µM), an IC50 (Candida albicans; [4]) of 6.5 µg/mL (≈ 14.2 µM) and an IC50 (Cryptococcus neoformans) of under 0.32 µg/mL. The IC50 (Aspergillus fumigatus) was 3.9 µg/mL (≈ 8.54 µM).
`C=CCN(C)CCCCCCOc1ccc2c(-c3ccc(Br)cc3)nsc2c1` [Example 1, allyl-[6-[3-(4-bromo-phenyl)-benzo[d]isothiazol-6-yloxy]-hexyl]-methyl-amine] gave an IC50 (Candida albicans; [3]) of under 0.32 µg/mL, an IC50 (Candida albicans; [4]) of 3.6 µg/mL (≈ 7.84 µM) and an IC50 (Cryptococcus neoformans) of under 0.32 µg/mL. For the same compound, the IC50 (Aspergillus fumigatus) was 3.9 µg/mL (≈ 8.49 µM), the “HDL cholesterol (plasma, percent of control animals)” value [1] was -27% and the “LDL cholesterol (plasma, percent of control animals)” value [1] was -36%. For the same compound, the “Total cholesterol (plasma, percent of control animals)” value [1] was -33%, the inhibition at 0.1 µM [2] was 96% and the pIC50 [2] was 8.48.
With `C=CCN(C)CCCCCCOc1ccc2c(-c3ccc(Br)cc3)nccc2c1` [Example 23, allyl-[6-[1-(4-bromo-phenyl)-isoquinolin-6-yloxy]-hexyl]-methyl-amine] the “HDL cholesterol (plasma, percent of control animals)” value [1] was -2%, the “LDL cholesterol (plasma, percent of control animals)” value [1] was -23% and the “Total cholesterol (plasma, percent of control animals)” value [1] was -15%. For the same compound, the inhibition at 0.1 µM [2] was 99%.
For `CN(CCCCCCOc1ccc2c(-c3ccc(Br)cc3)nccc2c1)C1CC1` [Example 24, [6-[1-(4-bromo-phenyl)-isoquinolin-6-yloxy]-hexyl]-cyclopropyl-methyl-amine], the IC50 (Candida albicans; [3]) was under 0.32 µg/mL, the IC50 (Candida albicans; [4]) was 1.4 µg/mL (≈ 3.09 µM) and the IC50 (Cryptococcus neoformans) was under 0.32 µg/mL. The IC50 (Aspergillus fumigatus) was 1.9 µg/mL (≈ 4.19 µM), the inhibition at 0.1 µM [2] was 98% and the pIC50 [2] was 8.80.
Compound `C=CCN(C)CCCCCCOc1ccc2c(-c3ccc(Br)cc3)nncc2c1` [Example 29a, allyl-[6-[1-(4-bromo-phenyl)-phthalazin-6-yloxy]-hexyl]-methyl-amine] has an IC50 (Candida albicans; [3]) of under 0.32 µg/mL, an IC50 (Candida albicans; [4]) of 1.1 µg/mL (≈ 2.42 µM) and an IC50 (Cryptococcus neoformans) of under 0.32 µg/mL. For the same compound, the IC50 (Aspergillus fumigatus) was 0.37 µg/mL (≈ 0.814 µM).
In the case of `C=CCN(C)CCCCCCOc1ccc2c(-c3ccc(Br)cc3)ccnc2c1` [Example 38, Allyl-[6-[4-(4-bromo-phenyl)-quinolin-7-yloxy]-hexyl]-methyl-amine], the inhibition at 0.1 µM [2] was 84%.
